For one experiment, the system named is PDGFR. In words: PDGF-stimulated PDGFR tyrosine phosphorylation in NIH 3T3 cells. The format is cell-based, mouse. As for the experimental part:
(§1) Inhibition of growth factor-dependent receptor tyrosine phosphorylation by GFBs. Starved Flk-1/KDR-overexpressing NIH 3T3 cells (Flk-1/NIH 3T3) or NIH 3T3 cells were pretreated with GFBs for 5 min before stimulation with VEGF (50 ng/ml) or PDGF-BB (10 ng/ml) for 10 min, respectively. The cells were then harvested and lysed, and proteins from the lysates were separated by SDS-PAGE and transferred to nitrocellulose. Membranes then were either immunoblotted with anti-phospho-VEGFR2 antibody (Cell Signaling Technologies, Beverly, Mass.) for activated Flk-1 or anti-phospho-tyrosine antibody (4G10, Upstate Biotechnology, Lake Placid, N.Y.) for activated PDGFR. Phosphotyrosine Flk-1 and PDGFR were quantified using a Bio-Rad Model GS-700 Imaging Densitometer (Bio-Rad Laboratories, Inc, Hercules, Calif.) (Blaskovich, M. A. et al. Nat Biotechnol, 2000, 18:1065-70).

Another experiment has as its system VEGFR (Flk-1/KDR). The experiment in a line: VEGF-stimulated Flk-1 tyrosine phosphorylation in Flk-1/NIH 3T3 cells. The format is cell-based, human. As for the experimental part:
as §1

Another experiment deals with pancreatic tumors. The settings on record: Bergers et al. 2003; cited from earlier work.
Experiment [1] deals with metastatic colorectal cancer. The settings on record: patients with metastatic colorectal cancer; cited from earlier work.
Where [2] appears, read: PDGF-BB 10 ng/ml stimulated receptor tyrosine phosphorylation, NIH 3T3 cells; read-out: IC50 (μM) PDGFR.
Where [3] appears, read: VEGF 50 ng/ml stimulated Flk-1 tyrosine phosphorylation, read-out: IC50 (μM) VEGFR.
Setting [4] is: read-out: IC50 (μM) PDGFR; PDGF-BB 10 ng/ml stimulated receptor tyrosine phosphorylation, NIH 3T3 cells.
Setting [5] is: read-out: IC50 (μM) VEGFR, VEGF 50 ng/ml stimulated Flk-1 tyrosine phosphorylation.

Where “and” joins values, the source holds several entries; their conditions need not be identical. Equal values may be shown once. Read-outs that look alike come from different tables or passages of the source. Some results are limits rather than exact numbers.

Regarding `CCCCOc1c2cc(C(=O)Nc3cc(C(=O)O)cc(C(=O)O)c3)cc1Cc1cc(C(=O)Nc3cc(C(=O)O)cc(C(=O)O)c3)cc(c1OCCCC)Cc1cc(C(=O)Nc3cc(C(=O)O)cc(C(=O)O)c3)cc(c1OCCCC)Cc1cc(C(=O)Nc3cc(C(=O)O)cc(C(=O)O)c3)cc(c1OCCCC)C2` [GFB201], the results for the IC50 with PDGFR (setting [2]) and in the experiment with VEGFR (Flk-1/KDR) (setting [3]) were 2.62 ± 0.5 µM and 4.96 ± 0.34 µM, respectively. Consider `CCCCOc1c2cc(C(=O)Nc3cc(C(=O)NC(CC(=O)O)C(=O)O)cc(C(=O)NC(CC(=O)O)C(=O)O)c3)cc1Cc1cc(C(=O)Nc3cc(C(=O)NC(CC(=O)O)C(=O)O)cc(C(=O)NC(CC(=O)O)C(=O)O)c3)cc(c1OCCCC)Cc1cc(C(=O)Nc3cc(C(=O)NC(CC(=O)O)C(=O)O)cc(C(=O)NC(CC(=O)O)C(=O)O)c3)cc(c1OCCCC)Cc1cc(C(=O)Nc3cc(C(=O)NC(CC(=O)O)C(=O)O)cc(C(=O)NC(CC(=O)O)C(=O)O)c3)cc(c1OCCCC)C2` (stereo not shown) [GFB202], for which the values for the IC50 in the experiment with PDGFR (setting [4]) and in the experiment with VEGFR (Flk-1/KDR) (setting [5]) were 1.39 ± 0.38 µM and 11.3 ± 2.9 µM, respectively. For `CCCCOc1c2cc(C(=O)Nc3cc(C(=O)NCCC(=O)O)cc(C(=O)NCCC(=O)O)c3)cc1Cc1cc(C(=O)Nc3cc(C(=O)NCCC(=O)O)cc(C(=O)NCCC(=O)O)c3)cc(c1OCCCC)Cc1cc(C(=O)Nc3cc(C(=O)NCCC(=O)O)cc(C(=O)NCCC(=O)O)c3)cc(c1OCCCC)Cc1cc(C(=O)Nc3cc(C(=O)NCCC(=O)O)cc(C(=O)NCCC(=O)O)c3)cc(c1OCCCC)C2` [GFB203], in the experiment on VEGFR (Flk-1/KDR) (setting [3]), the IC50 worked out at 19.8 ± 2.9 µM. In the case of `CCCCOc1c2cc(C(=O)Nc3cc(C(=O)NC(CC(=O)O)C(=O)O)cc(C(=O)NC(Cc4ccc(O)cc4)C(=O)O)c3)cc1Cc1cc(C(=O)Nc3cc(C(=O)NC(CC(=O)O)C(=O)O)cc(C(=O)NC(Cc4ccc(O)cc4)C(=O)O)c3)cc(c1OCCCC)Cc1cc(C(=O)Nc3cc(C(=O)NC(CC(=O)O)C(=O)O)cc(C(=O)NC(Cc4ccc(O)cc4)C(=O)O)c3)cc(c1OCCCC)Cc1cc(C(=O)Nc3cc(C(=O)NC(CC(=O)O)C(=O)O)cc(C(=O)NC(Cc4ccc(O)cc4)C(=O)O)c3)cc(c1OCCCC)C2` (stereo not shown) [GFB205], the IC50 with VEGFR (Flk-1/KDR) (setting [5]) came out at 5.86 ± 0.68 µM. Consider `CCCCOc1c2cc(C(=O)Nc3cc(C(=O)NCCC(=O)O)cc(C(=O)N[C@@H](Cc4ccc(O)cc4)C(=O)O)c3)cc1Cc1cc(C(=O)Nc3cc(C(=O)NCCC(=O)O)cc(C(=O)N[C@@H](Cc4ccc(O)cc4)C(=O)O)c3)cc(c1OCCCC)Cc1cc(C(=O)Nc3cc(C(=O)NCCC(=O)O)cc(C(=O)N[C@@H](Cc4ccc(O)cc4)C(=O)O)c3)cc(c1OCCCC)Cc1cc(C(=O)Nc3cc(C(=O)NCCC(=O)O)cc(C(=O)N[C@@H](Cc4ccc(O)cc4)C(=O)O)c3)cc(c1OCCCC)C2` [GFB207], for which the IC50 with VEGFR (Flk-1/KDR) (setting [3]) is 18.4 ± 2.72 µM.

Turning to `CCCCOc1c2cc(C(=O)Nc3cc(C(=O)NCCC(=O)O)cc(C(=O)N[C@@H](Cc4ccc(OCC(=O)O)cc4)C(=O)O)c3)cc1Cc1cc(C(=O)Nc3cc(C(=O)NCCC(=O)O)cc(C(=O)N[C@@H](Cc4ccc(OCC(=O)O)cc4)C(=O)O)c3)cc(c1OCCCC)Cc1cc(C(=O)Nc3cc(C(=O)NCCC(=O)O)cc(C(=O)N[C@@H](Cc4ccc(OCC(=O)O)cc4)C(=O)O)c3)cc(c1OCCCC)Cc1cc(C(=O)Nc3cc(C(=O)NCCC(=O)O)cc(C(=O)N[C@@H](Cc4ccc(OCC(=O)O)cc4)C(=O)O)c3)cc(c1OCCCC)C2` [GFB208], the IC50 in the experiment on PDGFR (setting [2]) came to 0.84 ± 0.06 µM. For the compound `CCCCOc1c2cc(C(=O)Nc3cc(C(=O)O)cc(C(=O)OC)c3)cc1Cc1cc(C(=O)Nc3cc(C(=O)O)cc(C(=O)OC)c3)cc(c1OCCCC)Cc1cc(C(=O)Nc3cc(C(=O)O)cc(C(=O)OC)c3)cc(c1OCCCC)Cc1cc(C(=O)Nc3cc(C(=O)O)cc(C(=O)OC)c3)cc(c1OCCCC)C2` [GFB209], the IC50 in the experiment with PDGFR (setting [2]) is 2.9 µM and 2.91 µM; in the experiment with VEGFR (Flk-1/KDR) (setting [3]) it was 5.58 ± 4.11 µM. On to `CCCCOc1c2cc(C(=O)Nc3cc(C(=O)O)cc(C(=O)OC(C)(C)C)c3)cc1Cc1cc(C(=O)Nc3cc(C(=O)O)cc(C(=O)OC(C)(C)C)c3)cc(c1OCCCC)Cc1cc(C(=O)Nc3cc(C(=O)O)cc(C(=O)OC(C)(C)C)c3)cc(c1OCCCC)Cc1cc(C(=O)Nc3cc(C(=O)O)cc(C(=O)OC(C)(C)C)c3)cc(c1OCCCC)C2` [GFB210], for which the IC50 in the experiment with PDGFR (setting [4]) worked out at 0.35 ± 0.31 µM; with VEGFR (Flk-1/KDR) (setting [5]), 4.54 ± 0.55 µM.

With `CCCCOc1c2cc(C(=O)Nc3cc(C(=O)O)cc(C(=O)NCc4ccccc4)c3)cc1Cc1cc(C(=O)Nc3cc(C(=O)O)cc(C(=O)NCc4ccccc4)c3)cc(c1OCCCC)Cc1cc(C(=O)Nc3cc(C(=O)O)cc(C(=O)NCc4ccccc4)c3)cc(c1OCCCC)Cc1cc(C(=O)Nc3cc(C(=O)O)cc(C(=O)NCc4ccccc4)c3)cc(c1OCCCC)C2` [GFB211], the IC50 came to 1.34 ± 0.32 µM in the experiment with PDGFR (setting [4]) and 13 ± 0.49 µM in the experiment on VEGFR (Flk-1/KDR) (setting [5]). Regarding `CCCCOc1c2cc(C(=O)Nc3cc(C(=O)O)cc(C(=O)NC4CCCCC4)c3)cc1Cc1cc(C(=O)Nc3cc(C(=O)O)cc(C(=O)NC4CCCCC4)c3)cc(c1OCCCC)Cc1cc(C(=O)Nc3cc(C(=O)O)cc(C(=O)NC4CCCCC4)c3)cc(c1OCCCC)Cc1cc(C(=O)Nc3cc(C(=O)O)cc(C(=O)NC4CCCCC4)c3)cc(c1OCCCC)C2` [GFB212], the IC50 in the experiment with PDGFR (setting [2]) was 0.29 ± 0.08 µM; with VEGFR (Flk-1/KDR) (setting [3]), over 10 µM. For the compound `CCCCOc1c2cc(C(=O)Nc3cc(C(=O)O)cc(C(=O)NC(C)(C)C)c3)cc1Cc1cc(C(=O)Nc3cc(C(=O)O)cc(C(=O)NC(C)(C)C)c3)cc(c1OCCCC)Cc1cc(C(=O)Nc3cc(C(=O)O)cc(C(=O)NC(C)(C)C)c3)cc(c1OCCCC)Cc1cc(C(=O)Nc3cc(C(=O)O)cc(C(=O)NC(C)(C)C)c3)cc(c1OCCCC)C2` [GFB213], the figures for the IC50 with PDGFR (setting [2]) and in the experiment with VEGFR (Flk-1/KDR) (setting [3]) were 0.57 ± 0.06 µM and 0.85 ± 0.44 µM, respectively. With `CCCCOc1c2cc(C(=O)Nc3cc(C(=O)O)cc(C(=O)NC(C)C)c3)cc1Cc1cc(C(=O)Nc3cc(C(=O)O)cc(C(=O)NC(C)C)c3)cc(c1OCCCC)Cc1cc(C(=O)Nc3cc(C(=O)O)cc(C(=O)NC(C)C)c3)cc(c1OCCCC)Cc1cc(C(=O)Nc3cc(C(=O)O)cc(C(=O)NC(C)C)c3)cc(c1OCCCC)C2` [GFB214], the figures for the IC50 in the experiment with PDGFR (setting [2]) and with VEGFR (Flk-1/KDR) (setting [3]) were 0.17 ± 0.02 µM and over 10 µM, respectively.

Consider `CCCCOc1c2cc(C(=O)Nc3cc(C(=O)O)cc(C(=O)NCCC)c3)cc1Cc1cc(C(=O)Nc3cc(C(=O)O)cc(C(=O)NCCC)c3)cc(c1OCCCC)Cc1cc(C(=O)Nc3cc(C(=O)O)cc(C(=O)NCCC)c3)cc(c1OCCCC)Cc1cc(C(=O)Nc3cc(C(=O)O)cc(C(=O)NCCC)c3)cc(c1OCCCC)C2` [GFB215], for which the figures for the IC50 in the experiment on PDGFR (setting [2]) and with VEGFR (Flk-1/KDR) (setting [3]) were 0.21 ± 0.13 µM and over 10 µM, respectively. For `C=CCNC(=O)c1cc(NC(=O)c2cc3c(OCCCC)c(c2)Cc2cc(C(=O)Nc4cc(C(=O)O)cc(C(=O)NCC=C)c4)cc(c2OCCCC)Cc2cc(C(=O)Nc4cc(C(=O)O)cc(C(=O)NCC=C)c4)cc(c2OCCCC)Cc2cc(C(=O)Nc4cc(C(=O)O)cc(C(=O)NCC=C)c4)cc(c2OCCCC)C3)cc(C(=O)O)c1` [GFB216], the IC50 was 0.15 ± 0.01 µM in the experiment with PDGFR (setting [2]) and over 10 µM in the experiment with VEGFR (Flk-1/KDR) (setting [3]). Turning to `CCCCOc1c2cc(C(=O)Nc3cc(C(=O)OCc4ccccc4)cc(C(=O)OC(C)(C)C)c3)cc1Cc1cc(C(=O)Nc3cc(C(=O)OCc4ccccc4)cc(C(=O)OC(C)(C)C)c3)cc(c1OCCCC)Cc1cc(C(=O)Nc3cc(C(=O)OCc4ccccc4)cc(C(=O)OC(C)(C)C)c3)cc(c1OCCCC)Cc1cc(C(=O)Nc3cc(C(=O)OCc4ccccc4)cc(C(=O)OC(C)(C)C)c3)cc(c1OCCCC)C2` [GFB217], the “inhibition of PDGF signaling, in words” value with PDGFR is “did not have a significant activity”. Moreover, the IC50 in the experiment on PDGFR (setting [4]) and in the experiment on VEGFR (Flk-1/KDR) (setting [5]) was over 10 µM each time. Turning to `CCCCOc1c2cc(C(=O)Nc3cc(C(=O)O)cc(C(=O)Nc4ccncc4)c3)cc1Cc1cc(C(=O)Nc3cc(C(=O)O)cc(C(=O)Nc4ccncc4)c3)cc(c1OCCCC)Cc1cc(C(=O)Nc3cc(C(=O)O)cc(C(=O)Nc4ccncc4)c3)cc(c1OCCCC)Cc1cc(C(=O)Nc3cc(C(=O)O)cc(C(=O)Nc4ccncc4)c3)cc(c1OCCCC)C2` [GFB218], the values for the IC50 in the experiment with PDGFR (setting [2]) and in the experiment with VEGFR (Flk-1/KDR) (setting [3]) were 0.54 ± 0.15 µM and over 10 µM, respectively. In the same order, the values of `CCCCOc1c2cc(C(=O)Nc3cc(C(=O)O)cc(C(=O)Nc4cccc5ccccc45)c3)cc1Cc1cc(C(=O)Nc3cc(C(=O)O)cc(C(=O)Nc4cccc5ccccc45)c3)cc(c1OCCCC)Cc1cc(C(=O)Nc3cc(C(=O)O)cc(C(=O)Nc4cccc5ccccc45)c3)cc(c1OCCCC)Cc1cc(C(=O)Nc3cc(C(=O)O)cc(C(=O)Nc4cccc5ccccc45)c3)cc(c1OCCCC)C2` [GFB219] are 0.53 ± 0.15 µM and over 10 µM.

Regarding `Cc1cc(C)c(/C=C2\C(=O)Nc3ccccc32)[nH]1` [SU5416], the “effect on pancreatic tumors” value in the experiment on pancreatic tumors is listed as “suppresses early, but not late, development of pancreatic tumors”. For `Cc1[nH]c(/C=C2\C(=O)Nc3ccccc32)c(C)c1CCC(=O)O` [SU6668], the “effect on pancreatic tumors” value in the experiment on pancreatic tumors is on record as “induced regression of advanced pancreatic tumor at late stage of development”.

For the compound “AVASTIN: humanized anti-VEGF monoclonal antibody”, in experiment [1], the “increase of median survival” value is 5 months.

The record behind these values is US7718700B2, “Growth factor-binding compounds and methods of use” (Yale University, priority 2004, dated 2010).
